Reference: ChEMBL document CHEMBL1201862, “PubChem BioAssay data set” (2004)
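Cells were grown in 96-well plates and exposed to each compound for 48 hours at five concentrations; endpoints were interpolated linearly between bracketing concentrations, or set to the highest concentration if not reached. GI50 marks 50% less growth.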 The source made the active and inactive calls. No stated cut-off is given here; in the data, active = GI50 up to about 1.1 µM and inactive = higher.

Legend:
Experiment in all cases: DTP human tumour cell line panel, 48 h
CCRF-CEM = test system: CCRF-CEM
COLO 205 = test system: COLO 205
HL-60 = test system: HL-60
IGROV-1 = test system: IGROV-1
M14 = test system: M14
MDA-MB-435 = test system: MDA-MB-435
MOLT-4 = test system: MOLT-4
Malme-3M = test system: Malme-3M
UACC-62 = test system: UACC-62
786-0 = test system: 786-0
A498 = test system: A498
A549 = test system: A549
ACHN = test system: ACHN
CAKI-1 = test system: CAKI-1
DU-145 = test system: DU-145
EKVX = test system: EKVX
HCT-116 = test system: HCT-116
HCT-15 = test system: HCT-15
HOP-92 = test system: HOP-92
HT-29 = test system: HT-29
K562 = test system: K562
KM12 = test system: KM12
LOX IMVI = test system: LOX IMVI
MCF7 = test system: MCF7
MDA-MB-231 = test system: MDA-MB-231
MDA-N = test system: MDA-N
NCI-H226 = test system: NCI-H226
NCI-H460 = test system: NCI-H460
NCI/ADR-RES = test system: NCI/ADR-RES
OVCAR-3 = test system: OVCAR-3
OVCAR-4 = test system: OVCAR-4
OVCAR-5 = test system: OVCAR-5
OVCAR-8 = test system: OVCAR-8
RXF 393 = test system: RXF 393
SF-295 = test system: SF-295
SF-539 = test system: SF-539
SK-MEL-28 = test system: SK-MEL-28
SK-MEL-2 = test system: SK-MEL-2
SK-MEL-5 = test system: SK-MEL-5
SK-OV-3 = test system: SK-OV-3
SN12C = test system: SN12C
SNB-19 = test system: SNB-19
SNB-75 = test system: SNB-75
SR = test system: SR
SW-620 = test system: SW-620
TK-10 = test system: TK-10
U-251 = test system: U-251
UACC-257 = test system: UACC-257
UO-31 = test system: UO-31
HOP-62 = test system: HOP-62
Hs-578T = test system: Hs-578T
NCI-H23 = test system: NCI-H23
NCI-H522 = test system: NCI-H522
PC-3 = test system: PC-3
SF-268 = test system: SF-268
T47D = test system: T47D

## O=CC(O)C(O)C(O)C(O)COP(=O)(O)Cc1ccccc1 (stereo not drawn)
CCRF-CEM
  GI50: > 10 µM (inactive)
COLO 205
  GI50: > 10 µM (inactive)
HL-60
  GI50: > 10 µM (inactive)
IGROV-1
  GI50: > 10 µM (inactive)
M14
  GI50: > 10 µM (inactive)
MDA-MB-435
  GI50: > 10 µM (inactive)
MOLT-4
  GI50: > 10 µM (inactive)
Malme-3M
  GI50: > 10 µM (inactive)
UACC-62
  GI50: > 10 µM (inactive)

## O=c1[nH]c(=O)n(COCc2ccccc2)c2ccc(Br)cc12
786-0
  GI50: > 100 µM (inactive)
A498
  GI50: > 100 µM (inactive)
A549
  GI50: > 100 µM (inactive)
ACHN
  GI50: 27.5 µM (inactive)
CAKI-1
  GI50: > 100 µM (inactive)
CCRF-CEM
  GI50: > 100 µM (inactive)
COLO 205
  GI50: > 100 µM (inactive)
DU-145
  GI50: > 100 µM (inactive)
EKVX
  GI50: 96.8 µM (inactive)
HCT-116
  GI50: > 100 µM (inactive)
HCT-15
  GI50: 71.4 µM
HL-60
  GI50: > 100 µM (inactive)
HOP-92
  GI50: > 100 µM (inactive)
HT-29
  GI50: > 100 µM (inactive)
IGROV-1
  GI50: > 100 µM (inactive)
K562
  GI50: > 100 µM (inactive)
KM12
  GI50: > 100 µM (inactive)
LOX IMVI
  GI50: > 100 µM (inactive)
M14
  GI50: > 100 µM (inactive)
MCF7
  GI50: > 100 µM (inactive)
MDA-MB-231
  GI50: > 100 µM (inactive)
MDA-MB-435
  GI50: > 100 µM (inactive)
MDA-N
  GI50: > 100 µM (inactive)
MOLT-4
  GI50: > 100 µM (inactive)
NCI-H226
  GI50: 36.3 µM (inactive)
NCI-H460
  GI50: 89.5 µM (inactive)
NCI/ADR-RES
  GI50: 37 µM (inactive)
OVCAR-3
  GI50: 85.3 µM (inactive)
OVCAR-4
  GI50: 60.8 µM (inactive)
OVCAR-5
  GI50: > 100 µM (inactive)
OVCAR-8
  GI50: 90.8 µM (inactive)
RXF 393
  GI50: > 100 µM (inactive)
SF-295
  GI50: 87.7 µM (inactive)
SF-539
  GI50: > 100 µM (inactive)
SK-MEL-28
  GI50: > 100 µM (inactive)
SK-MEL-2
  GI50: > 100 µM (inactive)
SK-MEL-5
  GI50: 99.3 µM (inactive)
SK-OV-3
  GI50: > 100 µM (inactive)
SN12C
  GI50: > 100 µM (inactive)
SNB-19
  GI50: 64.3 µM (inactive)
SNB-75
  GI50: 43.4 µM (inactive)
SR
  GI50: > 100 µM (inactive)
SW-620
  GI50: > 100 µM (inactive)
TK-10
  GI50: > 100 µM (inactive)
U-251
  GI50: > 100 µM (inactive)
UACC-257
  GI50: > 100 µM (inactive)
UACC-62
  GI50: > 100 µM (inactive)
UO-31
  GI50: > 100 µM (inactive)

## N=C(N)c1ccc(OCCCCCOc2ccc(C(=N)N)cc2)cc1
786-0
  GI50: 13.4 µM (inactive)
A549
  GI50: 6.17 µM (inactive)
ACHN
  GI50: 14.4 µM (inactive)
CAKI-1
  GI50: > 100 µM (inactive)
DU-145
  GI50: 13.6 µM (inactive)
EKVX
  GI50: 18.1 µM (inactive)
HCT-116
  GI50: 14.4 µM (inactive)
HCT-15
  GI50: 16.7 µM
HL-60
  GI50: 15.3 µM (inactive)
HOP-62
  GI50: 16.1 µM (inactive)
HOP-92
  GI50: 32.6 µM (inactive)
Hs-578T
  GI50: 11.5 µM (inactive)
K562
  GI50: 1.92 µM (inactive)
LOX IMVI
  GI50: 12.7 µM (inactive)
M14
  GI50: 15.2 µM (inactive)
MCF7
  GI50: 5.31 µM (inactive)
MDA-MB-435
  GI50: 10.4 µM (inactive)
MDA-N
  GI50: 11.2 µM (inactive)
Malme-3M
  GI50: 13.8 µM (inactive)
NCI-H23
  GI50: 6.71 µM (inactive)
NCI-H460
  GI50: 3.08 µM (inactive)
NCI-H522
  GI50: 6.44 µM (inactive)
OVCAR-3
  GI50: 15.5 µM (inactive)
OVCAR-4
  GI50: 11.2 µM (inactive)
OVCAR-5
  GI50: 22.8 µM (inactive)
OVCAR-8
  GI50: 7.85 µM (inactive)
PC-3
  GI50: 12.1 µM (inactive)
SF-268
  GI50: 12.5 µM (inactive)
SK-MEL-28
  GI50: 10.2 µM (inactive)
SK-MEL-2
  GI50: 17.3 µM (inactive)
SN12C
  GI50: 7.06 µM (inactive)
SNB-19
  GI50: 15.7 µM (inactive)
T47D
  GI50: 7.73 µM (inactive)
TK-10
  GI50: 13.6 µM (inactive)
U-251
  GI50: 9.84 µM (inactive)
UACC-62
  GI50: 11.5 µM (inactive)
